Assay results taken from US8431596B2 (Cancer Research Technology Limited, priority 2007, dated 2013).

Biological target: T1, AXL (human catalytic domain) (Homo sapiens, UniProt P30530)
T1 construct: purchased Upstate Ltd. 14-512
T1 sequence (P30530 473-894): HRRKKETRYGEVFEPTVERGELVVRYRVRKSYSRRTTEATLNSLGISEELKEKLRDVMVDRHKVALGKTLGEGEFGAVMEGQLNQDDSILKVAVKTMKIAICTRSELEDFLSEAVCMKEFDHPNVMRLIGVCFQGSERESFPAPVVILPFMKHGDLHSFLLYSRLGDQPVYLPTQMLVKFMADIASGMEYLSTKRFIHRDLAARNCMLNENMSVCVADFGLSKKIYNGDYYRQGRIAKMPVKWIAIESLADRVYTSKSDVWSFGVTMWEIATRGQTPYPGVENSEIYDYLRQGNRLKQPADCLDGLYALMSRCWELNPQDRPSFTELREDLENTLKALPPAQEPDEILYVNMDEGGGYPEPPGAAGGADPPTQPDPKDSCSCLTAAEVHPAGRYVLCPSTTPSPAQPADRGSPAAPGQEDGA
Assay: AXL (human catalytic domain) Enzyme Activity Assay (IMAP fluorescence polarisation)
Assay type: biochemical
Settings: further data set (WW-001 through WW-169, XX-001 through XX-469, YY-001 through YY-016, ZZ-001 through ZZ-003); 150 μM ATP
Method in brief: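 Recombinant human AXL isoform 1 (aa473-894; final 15 nM) phosphorylated 100 nM fluorescein-CSK-tide with 150 μM ATP (KM) in HEPES pH 7.0/MgCl2/DTT buffer for 60 min at room temperature. IMAP fluorescence polarisation read after overnight binding; IC50 from 10-point 4-parameter logistic fits.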

Cc1cccc(CS(=O)(=O)n2cc(-c3cccc4nc(Nc5ccc(OCCN6CCCC6)cc5)nn34)cn2)c1 [XX-286]
IC50: 100 to 1000 nM

O=S(=O)(Cc1cccc(C(F)(F)F)c1)n1cc(-c2cccc3nc(Nc4ccc(OCCN5CCCC5)cc4)nn23)cn1 [XX-287]
IC50: 100 to 1000 nM

O=S(=O)(Cc1cccc(Cl)c1)n1cc(-c2cccc3nc(Nc4ccc(OCCN5CCCC5)cc4)nn23)cn1 [XX-288]
IC50: 100 to 1000 nM

COc1cccc(CS(=O)(=O)n2cc(-c3cccc4nc(Nc5ccc(OCCN6CCCC6)cc5)nn34)cn2)c1 [XX-289]
IC50: 100 to 1000 nM

Cc1cccc(Cn2cc(-c3cccc4nc(Nc5ccc(OCCN6CCCC6)cc5)nn34)cn2)c1 [XX-290]
IC50: ≤ 100 nM

FC(F)(F)c1cc(-c2cccc3nc(Nc4ccc(OCCN5CCCC5)cc4)nn23)ccc1Cl [XX-291]
IC50: 100 to 1000 nM

Cc1cc(C)cc(-c2cccc3nc(Nc4ccc(OCCN5CCCC5)cc4)nn23)c1 [XX-292]
IC50: 100 to 1000 nM

c1ccc2oc(-c3cccc4nc(Nc5ccc(OCCN6CCCC6)cc5)nn34)cc2c1 [XX-293]
IC50: 100 to 1000 nM

c1ccc2sc(-c3cccc4nc(Nc5ccc(OCCN6CCCC6)cc5)nn34)cc2c1 [XX-294]
IC50: 100 to 1000 nM

Cc1ccc(CS(=O)(=O)n2cc(-c3cccc4nc(Nc5ccc(OCCN6CCCC6)cc5)nn34)cn2)cc1 [XX-295]
IC50: 100 to 1000 nM

CCCCS(=O)(=O)n1cc(-c2cccc3nc(Nc4ccc(OCCN5CCCC5)cc4)nn23)cn1 [XX-296]
IC50: 1000 to 10000 nM

Clc1ccc(-c2cccc3nc(Nc4ccc(OCCN5CCCC5)cc4)nn23)cc1Cl [XX-297]
IC50: 100 to 1000 nM

Clc1cc(Cl)cc(-c2cccc3nc(Nc4ccc(OCCN5CCCC5)cc4)nn23)c1 [XX-298]
IC50: 100 to 1000 nM

Clc1ccc(-c2cccc3nc(Nc4ccc(OCCN5CCCC5)cc4)nn23)s1 [XX-299]
IC50: 100 to 1000 nM

CCN(CC)CCNc1cc(Nc2nc3cccc(-c4ccc(OC)cc4)n3n2)ccn1 [XX-300]
IC50: 100 to 1000 nM

CCCCNC(=O)c1cccc(-c2cccc3nc(Nc4ccc(OCCN5CCCC5)cc4)nn23)c1 [XX-301]
IC50: 1000 to 10000 nM

C#CCn1cc(-c2cccc3nc(Nc4ccc(OCCN5CCCC5)cc4)nn23)cn1 [XX-302]
IC50: 100 to 1000 nM

Clc1ccc(Cn2cc(-c3cccc4nc(Nc5ccc(OCCN6CCCC6)cc5)nn34)cn2)cc1 [XX-304]
IC50: ≤ 100 nM

Cc1cc(Cn2cc(-c3cccc4nc(Nc5ccc(OCCN6CCCC6)cc5)nn34)cn2)no1 [XX-305]
IC50: 100 to 1000 nM

CC(c1ccccc1)n1cc(-c2cccc3nc(Nc4ccc(OCCN5CCCC5)cc4)nn23)cn1 (stereo not shown) [XX-306]
IC50: 100 to 1000 nM

OCCn1cc(-c2cccc3nc(Nc4ccc(OCCN5CCCC5)cc4)nn23)cn1 [XX-307, 2-(4-{2-[4-(2-Pyrrolidin-1-yl-ethoxy)-phenylamino]-[1,2,4]triazolo[1,5-a]pyridin-5-yl}-pyrazol-1-yl)-ethanol]
IC50: 100 to 1000 nM

NCc1cccc(-c2cccc3nc(Nc4ccc(OCCN5CCCC5)cc4)nn23)c1 [XX-308, [5-(3-Aminomethyl-phenyl)-[1,2,4]triazolo[1,5-a]pyridin-2-yl]-[4-(2-pyrrolidin-1-yl-ethoxy)-phenyl]-amine]
IC50: 1000 to 10000 nM

c1ccc(-c2nnc(-c3cccc(-c4cccc5nc(Nc6ccc(OCCN7CCCC7)cc6)nn45)c3)o2)cc1 [XX-309, {5-[3-(5-Phenyl-[1,3,4]oxadiazol-2-yl)-phenyl]-[1,2,4]triazolo[1,5-a]pyridin-2-yl}-[4-(2-pyrrolidin-1-yl-ethoxy)-phenyl]-amine]
IC50: 1000 to 10000 nM

O=C(c1cccc(-c2cccc3nc(Nc4ccc(OCCN5CCCC5)cc4)nn23)c1)c1ccc2c(c1)OCO2 [XX-310, Benzo[1,3]dioxol-5-yl-(3-{2-[4-(2-pyrrolidin-1-yl-ethoxy)-phenylamino]-[1,2,4]triazolo[1,5-a]pyridin-5-yl}-phenyl)-methanone]
IC50: 100 to 1000 nM

Cc1cc(-c2ccc3c(c2)OCCO3)n2nc(Nc3ccc(OCCN4CCCC4)cc3)nc2c1 [XX-311, [5-(2,3-Dihydro-benzo[1,4]dioxin-6-yl)-7-methyl-[1,2,4]triazolo[1,5-a]pyridin-2-yl]-[4-(2-pyrrolidin-1-yl-ethoxy)-phenyl]-amine]
IC50: 100 to 1000 nM

c1cc(-c2ccc3c(c2)OCCO3)n2nc(Nc3ccc(OCCCN4CCCC4)cc3)nc2c1 [XX-312]
IC50: ≤ 100 nM

CCn1cc(-c2cccc3nc(Nc4ccc(OCCN5CCCC5)cc4)nn23)cn1 [XX-315]
IC50: 100 to 1000 nM

c1cc(-c2cnn(CC3CC3)c2)n2nc(Nc3ccc(OCCN4CCCC4)cc3)nc2c1 [XX-316]
IC50: ≤ 100 nM

O=C(Cn1cc(-c2cccc3nc(Nc4ccc(OCCN5CCCC5)cc4)nn23)cn1)c1cccs1 [XX-317]
IC50: 100 to 1000 nM

CCCn1cc(-c2cccc3nc(Nc4ccc(OCCN5CCCC5)cc4)nn23)cn1 [XX-318]
IC50: ≤ 100 nM

CCC(CC)Cn1cc(-c2cccc3nc(Nc4ccc(OCCN5CCCC5)cc4)nn23)cn1 [XX-319]
IC50: ≤ 100 nM

CC[C@H](C)Cn1cc(-c2cccc3nc(Nc4ccc(OCCN5CCCC5)cc4)nn23)cn1 [XX-320]
IC50: ≤ 100 nM

O=C(Nc1ccc(Cl)cc1)c1cccc(-c2cccc3nc(Nc4ccc(OCCN5CCCC5)cc4)nn23)c1 [XX-321]
IC50: 1000 to 10000 nM

O=C(Nc1cccc(Cl)c1)c1cccc(-c2cccc3nc(Nc4ccc(OCCN5CCCC5)cc4)nn23)c1 [XX-322]
IC50: 1000 to 10000 nM

COc1ccc2nc(Nc3ccc(OCCN4CCCC4)cc3)nn2c1-c1ccc2c(c1)OCCO2 [XX-323, [5-(2,3-Dihydro-benzo[1,4]dioxin-6-yl)-6-methoxy-[1,2,4]triazolo[1,5-a]pyridin-2-yl]-[4-(2-pyrrolidin-1-yl-ethoxy)-phenyl]-amine]
IC50: 1000 to 10000 nM

CCCCS(=O)(=O)NCc1cccc(-c2cccc3nc(Nc4ccc(OCCN5CCCC5)cc4)nn23)c1 [XX-324, Butane-1-sulfonic acid 3-{2-[4-(2-pyrrolidin-1-yl-ethoxy)-phenylamino]-[1,2,4]triazolo[1,5-a]pyridin-5-yl}-benzylamide]
IC50: 1000 to 10000 nM

CC(C)CC(=O)NCc1cccc(-c2cccc3nc(Nc4ccc(OCCN5CCCC5)cc4)nn23)c1 [XX-325, 3-Methyl-N-(3-{2-[4-(2-pyrrolidin-1-yl-ethoxy)-phenylamino]-[1,2,4]triazolo[1,5-a]pyridin-5-yl}-benzyl)-butyramide]
IC50: 100 to 1000 nM

CCN(CC)CCN(C)c1cc(Nc2nc3cccc(-c4ccc(OC)cc4)n3n2)ccn1 [XX-326]
IC50: ≤ 100 nM

Nc1nnc(SCCn2cc(-c3cccc4nc(Nc5ccc(OCCN6CCCC6)cc5)nn34)cn2)[nH]1 [XX-327, (5-{1-[2-(5-Amino-4H-[1,2,4]triazol-3-ylsulfanyl)-ethyl]-1H-pyrazol-4-yl}-[1,2,4]triazolo[1,5-a]pyridin-2-yl)-[4-(2-pyrrolidin-1-yl-ethoxy)-phenyl]-amine]
IC50: 1000 to 10000 nM

C=Cn1cc(-c2cccc3nc(Nc4ccc(OCCN5CCCC5)cc4)nn23)cn1 [XX-328]
IC50: 100 to 1000 nM

CCN(CC)CCCOc1ccc(Nc2nc3cccc(-c4ccc5c(c4)OCCO5)n3n2)cc1 [XX-329]
IC50: 100 to 1000 nM

Clc1cccc(COc2cccc(-c3cccc4nc(Nc5ccc(OCCN6CCCC6)cc5)nn34)c2)c1 [XX-330]
IC50: 1000 to 10000 nM

CC(C)Oc1cccc(-c2cccc3nc(Nc4ccc(OCCN5CCCC5)cc4)nn23)c1 [XX-331]
IC50: 1000 to 10000 nM

c1cc(OCc2ccncc2)cc(-c2cccc3nc(Nc4ccc(OCCN5CCCC5)cc4)nn23)c1 [XX-332]
IC50: 100 to 1000 nM

COc1ccc(OC)c(-c2cccc3nc(Nc4ccc(OCCN5CCCC5)cc4)nn23)c1 [XX-333]
IC50: 1000 to 10000 nM

COc1cc(-c2cccc3nc(Nc4ccc(OCCN5CCCC5)cc4)nn23)ccc1F [XX-334]
IC50: 100 to 1000 nM
